One experiment has as its system NF-κB. Put plainly: Assay for NF-κB inhibition (luciferase reporter) in PMA-induced SW1353 cells. The format is cell-based. As to conditions: PMA-induced human chondrosarcoma cells (SW1353); NA = not active at 100 µM. The procedure:
The assay was performed in human chondrosarcoma cells (SW1353, obtained from American Type Culture Collection (ATCC), Manassas, VA, USA). Cells were cultured in 1:1 mixture of DMEM/F12 supplemented with 10% fetal bovine serum (FBS), 100 U/mL penicillin G sodium, and 100 μg/mL streptomycin at 37 °C in an atmosphere of 5% CO2 and 95% humidity. Cells (1.2 × 10^7) were washed once in an antibiotic and FBS-free DMEM/F12, and then resuspended in 500 μL of antibiotic-free DMEM/F12 containing 2.5% FBS. NF-κB luciferase plasmid construct was added to the cell suspension at a concentration of 50 μg/mL and incubated for 5 min at room temperature. The cells were electroporated at 160 V and one 70-ms pulse using BTX disposable cuvettes model 640 (4-mm gap) in a BTX Electro Square Porator T 820 (BTX I, San Diego, CA, USA). The transfected cells were plated to the wells of 96-well plates at a density of 1.25 × 10^5 cells per well. After 24 h, cells were treated with different concentrations of test compound for 30 min before the addition of PMA (70 ng/mL) and incubated for 8 h. Luciferase activity was measured using the Luciferase Assay kit (Promega). Light output was detected on a SpectraMax plate reader. Percent inhibition of luciferase activity was calculated as compared to vehicle control, and IC50 values were obtained from concentration response curves. Parthenolide was used as positive control.
A general note: Reporter assays use an easily measured gene product as a stand-in for the process of interest.

For a further experiment, the system named is iNOS. The experiment can be described thus: Assay for iNOS inhibition (nitrite by Griess reagent) in LPS-induced macrophages. In kind it is cell-based. As to conditions: Mus musculus, RAW264.7; LPS-induced RAW 264.7 macrophages; NA = not active at 50 µM. On the procedure: The assay was performed in mouse macrophages (RAW264.7, obtained from ATCC)) cultured in phenol red free RPMI medium supplemented with 10% bovine calf serum and 100 U/mL penicillin G sodium, and 100 μg/mL streptomycin at 37 °C in an atmosphere of 5% CO2 and 95% humidity. Cells were seeded in 96-well plates (50,000 cells/well) and incubated for 24 h for a confluency of 75% or more. Test samples diluted in serum free medium were added, and after 30 min of incubation, LPS (5 μg/mL) was added and cells were further incubated for 24 h. The concentration of nitric oxide (NO) was determined by measuring the level of nitrite in the cell culture supernatant by using Griess reagent. Percent inhibition of nitrite production by the test compound was calculated in comparison to the vehicle control. IC50 values were obtained from concentration response curves. Parthenolide was used as a positive control.
(Nitrite, measured by Griess reagent, commonly stands in for NO production.)

In the next experiment the test system is Cryptococcus neoformans. The arrangement: method as in PMID 27584935. As to conditions: against Cryptococcus neoformans; cited from earlier work.

Structures are written as SMILES.

For the compound `CC(C)C(=O)c1c(O)cc(O)cc1O` [Compound 3], the half-inhibitory concentration (IC50) (in general, the concentration that inhibits the measured activity by half) in the experiment on NF-κB amounted to 90 ± 14.1 µM.

Turning to `COCOc1cc(OCOC)c(C(=O)C(C)C)c(O)c1Cc1ccc(Br)cc1` [Compound 5, 1-[3-(4-Bromo-benzyl)-2-hydroxy-4,6-bis-methoxymethoxy-phenyl]-2-methyl-propan-1-one], the half-inhibitory concentration (IC50) in the experiment with NF-κB turned out to be 29 ± 15.5 µM; in the experiment with iNOS, 50 µM.

Take `CC(=O)c1c(O)cc(O)c(C(C)=O)c1O` [Compound 2]: the 50% inhibitory concentration (IC50) with NF-κB was 34 ± 8.5 µM; in the experiment on iNOS, 19 ± 1.4 µM. In addition, in the experiment on Cryptococcus neoformans, the “in vitro antifungal activity” value is “potent”.

In the case of `CC(C)C(=O)c1c(O)cc(O)c(Cc2ccc(Cc3c(O)cc(O)c(C(=O)C(C)C)c3O)cc2)c1O` [Compound 6, 2-Methyl-1-{2,4,6-trihydroxy-3-[4-(2,4,6-trihydroxy-3-isobutyryl-benzyl)-benzyl]-phenyl}-propan-1-one], the figures for the IC50 with NF-κB and with iNOS were 85 ± 21.2 µM and 19 ± 1.4 µM, respectively.

In the case of `C=C1C(=O)O[C@H]2[C@H]1CC/C(C)=C/CC[C@@]1(C)O[C@@H]21` [Parthenolide, reference compound], the IC50 amounted to 20.5 ± 2.9 µM with NF-κB and 2.5 ± 0.2 µM with iNOS.

Take `CC(C)C(=O)c1c(O)cc(O)c(Cc2ccc(Br)cc2)c1O` [Compound 4, 1-[3-(4-Bromo-benzyl)-2,4,6-trihydroxy-phenyl]-2-methyl-propan-1-one]: the IC50 in the experiment with NF-κB came out at 37.5 ± 3.5 µM; in the experiment with iNOS it was 19.5 ± 0.7 µM.

Regarding `CC(C)C(=O)c1c(O)cc(O)c(Cc2ccc(CN3CCCCC3)cc2)c1O` [Compound 7, 2-Methyl-1-[2,4,6-trihydroxy-3-(4-piperidin-1-ylmethyl-benzyl)-phenyl]-propan-1-one], inhibition in the experiment on iNOS was half-maximal at 49 ± 1.4 µM (IC50).

The values above are taken from paper PMC6321231, “Synthesis and Anti-Inflammatory Activities of Phloroglucinol-Based Derivatives” (Molecules, 2018).
